{
  "source": "patent US20050009886A1",
  "about": "“1,4-Dihydropyridine derivative with a guaiacoxypropanolamine and/or phenoxypropanolamine moiety” (priority 1998, published 2005)",
  "key": {"β2-adrenoceptor": {"target": "T1, β2-adrenoceptor (Cavia porcellus, UniProt Q8K4Z4)", "T1 construct": "a portion of tracheal approximately 4 cm long was removed; from tissue; host or cells: isolated trachea of reserpine-pretreated guinea pigs", "T1 sequence (Q8K4Z4 whole entry)": "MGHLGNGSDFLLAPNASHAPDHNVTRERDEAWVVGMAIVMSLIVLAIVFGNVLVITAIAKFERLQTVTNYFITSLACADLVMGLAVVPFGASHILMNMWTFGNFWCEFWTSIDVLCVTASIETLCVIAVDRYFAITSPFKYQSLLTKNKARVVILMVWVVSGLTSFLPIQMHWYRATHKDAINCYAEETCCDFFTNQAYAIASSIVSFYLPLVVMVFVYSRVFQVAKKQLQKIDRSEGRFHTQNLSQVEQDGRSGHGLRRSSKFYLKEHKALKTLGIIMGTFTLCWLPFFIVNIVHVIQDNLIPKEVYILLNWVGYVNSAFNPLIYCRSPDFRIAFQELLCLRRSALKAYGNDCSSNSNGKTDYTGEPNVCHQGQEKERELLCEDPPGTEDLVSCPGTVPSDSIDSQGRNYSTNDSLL", "assay": "Direct effect (intrinsic sympathomimetic activity) on reserpine pretreated isolated tracheal", "parameters": "species or system guinea pig", "settings": "cumulative 10^−10˜3×10^−6 M, reserpine pretreated tracheal", "procedure": "18˜24 hours before the experiment, 5 mg/kg of reserpine was injected via abdominal cavity to remove all endogenous catecholamines. Prior experiment, guinea pigs were sacrificed, the tracheal was immediately removed and placed in Kreb's solution aerated with air mixture and maintained at room temperature of 22˜25° C. […] Then the tissue was repeatedly washed with Kreb's solution."}, "β-adrenoreceptor (β1)": {"target": "T2, β-adrenoreceptor (β1) (Rattus norvegicus, UniProt P18090)", "T2 construct": "The right and left atria were then separated; from tissue; host or cells: isolated rat right atrium (spontaneously beating) and left atrium (electrically paced)", "T2 sequence (P18090 whole entry)": "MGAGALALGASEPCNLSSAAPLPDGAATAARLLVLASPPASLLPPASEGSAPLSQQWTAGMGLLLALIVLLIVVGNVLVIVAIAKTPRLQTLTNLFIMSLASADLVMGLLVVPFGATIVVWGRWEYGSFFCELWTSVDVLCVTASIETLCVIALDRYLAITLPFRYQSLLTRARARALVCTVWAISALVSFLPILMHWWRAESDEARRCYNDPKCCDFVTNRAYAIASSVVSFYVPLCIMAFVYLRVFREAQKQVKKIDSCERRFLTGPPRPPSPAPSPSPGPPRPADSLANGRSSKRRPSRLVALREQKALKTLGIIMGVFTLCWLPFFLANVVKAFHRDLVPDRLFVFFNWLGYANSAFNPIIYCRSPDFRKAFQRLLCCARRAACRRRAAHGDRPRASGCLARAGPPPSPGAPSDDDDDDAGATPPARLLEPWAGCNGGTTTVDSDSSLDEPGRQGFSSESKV", "assay": "Isolated right atrium, L-isoproterenol-induced heart rate increase (pA2)", "parameters": "species or system Wistar rat", "procedure": "The right and left atria were then separated. The spontaneously-beating right atria was clipped on both end by heart shaped clips, where one end was fixed at the bottom of 10 ml of tissue bath made of physiological saline solution, and temperature maintained at 37° C. The other end of the atria was connected to a force transducer, and isometric contractions and beating rate of the right atria were recorded by COULBOURN AT-High-Speed VideoFigure. After the samples were given 250 mg of contractions and reach equilibrium the following experiments were carried out: • (a) β-adrenoceptor blocking action\nCumulative administration interval was when the previous concentration reached its greatest effect, the next concentration would be immediately given.\nThe equation is as follows: pA2=−Log KB Log(DRADJ−1)=nlog[B]−LogKB [formula]\n[B] Test compound concentration in moles • KB: equilibrium dissociation constant • n: value of slope DR: test EC50 divided by control EC50 • CF: EC50 of second or third control groups divided by EC50 of first control group (c) Effect of Compound on the Increase of Spontaneous Beating in Right Atrium Caused by CaCl2"}},
  "data": [
    {"smiles": "COc1cc(C=O)ccc1OCC(O)CNC(C)(C)C", "note": "(stereo not drawn) [Vanidilol, reference compound]", "values": [
      {"measurement": "direct tracheal relaxation effect", "setting": "β2-adrenoceptor", "result": "dose-dependant tracheal relaxation effect"},
      {"measurement": "effect on right atrium relative to tracheal (selectivity ratio of β1 type adrenoceptor)", "setting": "β-adrenoreceptor (β1); from average pA2 difference between right atrium and tracheal", "result": 0.98, "unit": "×"},
      {"measurement": "selectivity on the type of β-adrenoceptor", "setting": "β-adrenoreceptor (β1); β1:β2", "result": "non-selective"}
    ]}
  ]
}
